We go through four compounds from BindingDB's records for patent US20230295119 (Gossamer Bio Services, 2023).

The target of assay [1] is Tyrosine-protein kinase JAK1 (Homo sapiens, UniProt P23458). Description: JAK1, JAK2, and JAK3 Activity. The procedure: (§1) Compounds described herein were tested for the ability to inhibit activity of human JAK1, JAK2 and JAK3, which was achieved using TR-FRET assays. Briefly, the Kinases JAK1 (2.5 nM), JAK2 (0.025 nM) and JAK3 (0.0125 nM) were incubated with a series of concentrations of the test compound in the presence of […] (biotin-ahx- […]-CONH2), 2 nM Eu-labeled anti-pTYRPY20 and 80 nM Streptavidin APC. After 30 min incubation at RT, ATP ([…] respectively for JAK1, JAK2 and JAK3) was added to start the reaction, and incubated for 80 min at RT. The reaction was stopped by adding detection buffer and incubated for a further 60 min at RT. The samples were analyzed using Envision to calculate % inhibition at each of the series of concentrations of the test compound. The IC50 value of the compounds for each of the kinases were calculated using XLFit software.

Assay [2] concerns the target T1, Tyrosine-protein kinase JAK3 (Homo sapiens, UniProt P52333).
T1 sequence (P52333 whole entry): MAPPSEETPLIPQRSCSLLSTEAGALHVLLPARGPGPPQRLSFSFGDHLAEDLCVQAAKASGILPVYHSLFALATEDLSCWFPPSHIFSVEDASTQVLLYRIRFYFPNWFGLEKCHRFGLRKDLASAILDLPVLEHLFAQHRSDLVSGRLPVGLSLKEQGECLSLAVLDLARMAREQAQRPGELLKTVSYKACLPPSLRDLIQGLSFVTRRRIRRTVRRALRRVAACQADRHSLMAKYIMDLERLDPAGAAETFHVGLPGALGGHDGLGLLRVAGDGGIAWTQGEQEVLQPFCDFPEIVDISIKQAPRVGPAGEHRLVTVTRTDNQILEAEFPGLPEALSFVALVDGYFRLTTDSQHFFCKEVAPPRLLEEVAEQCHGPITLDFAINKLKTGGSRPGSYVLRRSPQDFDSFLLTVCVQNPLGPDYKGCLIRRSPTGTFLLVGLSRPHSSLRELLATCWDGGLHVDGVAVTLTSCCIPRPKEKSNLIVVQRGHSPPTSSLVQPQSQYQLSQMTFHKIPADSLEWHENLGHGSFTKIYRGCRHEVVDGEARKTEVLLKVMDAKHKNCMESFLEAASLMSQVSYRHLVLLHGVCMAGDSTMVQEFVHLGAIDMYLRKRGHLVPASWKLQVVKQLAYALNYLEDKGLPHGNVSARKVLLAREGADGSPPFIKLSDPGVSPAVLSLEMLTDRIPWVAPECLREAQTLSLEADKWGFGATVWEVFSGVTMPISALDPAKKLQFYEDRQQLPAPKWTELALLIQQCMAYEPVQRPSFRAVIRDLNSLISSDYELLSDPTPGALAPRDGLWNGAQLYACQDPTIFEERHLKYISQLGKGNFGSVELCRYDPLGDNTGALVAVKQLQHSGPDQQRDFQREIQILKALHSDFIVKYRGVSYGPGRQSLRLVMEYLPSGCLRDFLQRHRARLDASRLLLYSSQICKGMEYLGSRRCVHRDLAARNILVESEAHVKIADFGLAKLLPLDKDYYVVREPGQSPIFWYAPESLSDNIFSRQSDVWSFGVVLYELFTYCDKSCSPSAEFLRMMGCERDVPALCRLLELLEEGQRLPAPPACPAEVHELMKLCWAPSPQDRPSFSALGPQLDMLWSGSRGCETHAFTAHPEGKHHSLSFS
Description: JAK1, JAK2, and JAK3 Activity. The procedure: as §1

A short description of assay [3]: JAK1, JAK2, and JAK3 Activity.
The target of assay [4] is Tyrosine-protein kinase JAK2 (Homo sapiens, UniProt O60674). Description: JAK1, JAK2, and JAK3 Activity. Here is the method: as §1
Sequence of Tyrosine-protein kinase JAK2 (O60674 whole entry): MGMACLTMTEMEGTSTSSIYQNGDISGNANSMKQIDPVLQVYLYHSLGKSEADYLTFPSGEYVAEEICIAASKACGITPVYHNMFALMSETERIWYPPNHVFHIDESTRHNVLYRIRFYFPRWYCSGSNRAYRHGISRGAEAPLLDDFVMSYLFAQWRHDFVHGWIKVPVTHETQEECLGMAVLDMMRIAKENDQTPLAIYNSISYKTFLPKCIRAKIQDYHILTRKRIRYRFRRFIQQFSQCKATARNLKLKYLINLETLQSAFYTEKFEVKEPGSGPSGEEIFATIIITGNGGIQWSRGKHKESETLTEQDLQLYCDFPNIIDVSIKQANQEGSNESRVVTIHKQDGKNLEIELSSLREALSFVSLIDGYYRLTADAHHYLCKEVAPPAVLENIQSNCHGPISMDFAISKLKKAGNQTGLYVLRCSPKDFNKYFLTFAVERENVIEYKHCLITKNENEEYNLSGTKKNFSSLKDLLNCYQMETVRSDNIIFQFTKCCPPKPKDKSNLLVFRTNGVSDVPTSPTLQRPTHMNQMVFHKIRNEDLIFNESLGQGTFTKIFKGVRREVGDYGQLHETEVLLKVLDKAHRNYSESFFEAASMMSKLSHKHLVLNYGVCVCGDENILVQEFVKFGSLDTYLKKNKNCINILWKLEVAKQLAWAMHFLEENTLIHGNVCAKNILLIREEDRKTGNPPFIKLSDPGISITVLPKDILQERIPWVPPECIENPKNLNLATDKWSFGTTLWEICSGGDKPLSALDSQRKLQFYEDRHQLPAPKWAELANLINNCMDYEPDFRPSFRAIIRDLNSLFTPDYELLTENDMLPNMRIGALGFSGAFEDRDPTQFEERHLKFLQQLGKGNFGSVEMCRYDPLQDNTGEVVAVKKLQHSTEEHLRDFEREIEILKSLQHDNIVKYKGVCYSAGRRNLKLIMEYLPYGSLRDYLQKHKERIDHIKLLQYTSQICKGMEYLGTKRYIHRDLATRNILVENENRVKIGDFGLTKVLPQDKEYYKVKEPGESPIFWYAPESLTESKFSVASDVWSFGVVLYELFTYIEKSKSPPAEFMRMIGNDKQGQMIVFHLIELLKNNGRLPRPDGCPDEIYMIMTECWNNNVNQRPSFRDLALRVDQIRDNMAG

Sequence of Tyrosine-protein kinase JAK1 (P23458 whole entry): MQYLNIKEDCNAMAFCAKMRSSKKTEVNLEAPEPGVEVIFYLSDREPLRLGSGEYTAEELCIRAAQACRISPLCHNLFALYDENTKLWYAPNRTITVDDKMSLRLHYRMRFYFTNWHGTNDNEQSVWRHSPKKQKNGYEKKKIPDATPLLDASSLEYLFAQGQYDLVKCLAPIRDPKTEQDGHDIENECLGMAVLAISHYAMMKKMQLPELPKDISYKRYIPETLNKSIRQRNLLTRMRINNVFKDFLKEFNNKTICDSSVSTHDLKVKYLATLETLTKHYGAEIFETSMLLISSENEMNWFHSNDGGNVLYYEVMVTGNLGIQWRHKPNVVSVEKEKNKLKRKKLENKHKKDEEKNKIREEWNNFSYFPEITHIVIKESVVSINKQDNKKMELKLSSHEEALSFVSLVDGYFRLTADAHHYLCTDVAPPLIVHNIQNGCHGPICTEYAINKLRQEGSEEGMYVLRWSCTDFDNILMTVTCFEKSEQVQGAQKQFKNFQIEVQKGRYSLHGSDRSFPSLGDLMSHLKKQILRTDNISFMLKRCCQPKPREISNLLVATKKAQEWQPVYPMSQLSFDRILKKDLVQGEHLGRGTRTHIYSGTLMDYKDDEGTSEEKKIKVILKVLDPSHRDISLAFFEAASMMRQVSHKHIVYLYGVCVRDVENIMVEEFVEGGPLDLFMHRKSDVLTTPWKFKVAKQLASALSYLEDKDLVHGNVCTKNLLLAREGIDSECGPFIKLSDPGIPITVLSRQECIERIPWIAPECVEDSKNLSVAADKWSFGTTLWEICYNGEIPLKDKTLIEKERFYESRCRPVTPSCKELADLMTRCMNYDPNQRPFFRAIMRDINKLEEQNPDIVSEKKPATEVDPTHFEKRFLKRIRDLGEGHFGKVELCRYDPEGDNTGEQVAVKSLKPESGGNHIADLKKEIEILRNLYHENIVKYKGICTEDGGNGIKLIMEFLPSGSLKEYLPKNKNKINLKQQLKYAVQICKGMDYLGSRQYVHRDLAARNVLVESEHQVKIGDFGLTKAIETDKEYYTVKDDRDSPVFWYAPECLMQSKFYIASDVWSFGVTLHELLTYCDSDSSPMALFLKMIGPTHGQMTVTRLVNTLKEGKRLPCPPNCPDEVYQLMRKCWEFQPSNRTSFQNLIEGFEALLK

The term IC50 denotes the midpoint of a concentration-inhibition curve. `CCC(=O)c1cnc(Nc2cc(C(C)NC)ncn2)cc1Nc1cccc(-c2ncn(C)n2)c1OC` (configuration not stated) [US20230295119, Compound 9PPPP]: the values for the IC50 in assay [1], in assay [2] and in assay [3] were more than 0.5 µM, more than 0.5 µM and less than 0.005 µM, respectively.
With `CCC(=O)c1cnc(Nc2cnc(OCCN3CCN(C)CC3)cn2)cc1Nc1cccc(-c2ncn(C)n2)c1OC` [US20230295119, Compound 18FFF], the IC50 in assay [1] is more than 0.5 µM; in assay [4], more than 0.5 µM; in assay [2] it was more than 0.5 µM; in assay [3], less than 0.005 µM.
Take `CCC(=O)c1cnc(Nc2ccc(CN3CCN(C)CC3)nn2)cc1Nc1cccc(-c2ncn(C)n2)c1OC` [US20230295119, Compound 9PPP]: the IC50 in assay [1] and in assay [2] was more than 0.5 µM throughout.
Take `CCC(=O)c1cnc(Nc2cnc(O[C@@H]3CCN(CC)C3)cn2)cc1Nc1cccc(-c2ncn(C)n2)c1OC` [US20230295119, Compound 18DDD]: the IC50 in assay [1], in assay [4] and in assay [2] was more than 0.5 µM throughout.
